The structures appear in SMILES notation. Values joined by “and” are separate entries in the source; they are usually repeats but may differ in a detail not shown here. Identical values can stand only once.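 Compound exposure: 48 hours, 5 concentrations, 96-well plates. GI50 = concentration required for 50% inhibition of growth. TGI is the concentration that stops growth completely.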

Among the data in PubChem BioAssay (NCI) are TGI and GI50 values, retold here.

Test systems include A498 renal; DLD-1 colon; DMS 114 small cell lung; HCC-2998 colon; IGROV1 ovarian; KM12 colon; KM20L2 colon; M19-MEL melanoma; OVCAR-3 ovarian; SK-MEL-5 melanoma; XF 498 CNS; MDA-MB-231 breast; T-47D breast.
Common to all, as to assay: NCI-60 cell line screen, 48 h

Regarding `COc1cccc(-c2nccc3c(OCc4ccccc4)c(OC)c(OC)cc23)c1`, the TGI with A498 renal, in the assay on DLD-1 colon, in the assay on DMS 114 small cell lung, in the assay with HCC-2998 colon, in the assay with IGROV1 ovarian and in the assay with KM12 colon was over 100 µM in each case. Moreover, the TGI with KM20L2 colon, in the assay with M19-MEL melanoma, with OVCAR-3 ovarian, in the assay with SK-MEL-5 melanoma and with XF 498 CNS was over 100 µM in each case.
As to `C[n+]1c2ccccc2c(/C=N\NS(=O)(=O)c2ccc(Cl)cc2)c2ccccc21`, the TGI with A498 renal, in the assay on DLD-1 colon, with DMS 114 small cell lung, with HCC-2998 colon, with IGROV1 ovarian and in the assay on KM12 colon was over 100 µM each time. Moreover, the TGI in the assay on KM20L2 colon, with M19-MEL melanoma, in the assay on OVCAR-3 ovarian, with SK-MEL-5 melanoma and with XF 498 CNS was over 100 µM in each case.
With `CCN(CC)CCOc1ccc(C(O)(Cc2ccc(OC)cc2)c2ccccc2)cc1` (configuration not stated), the TGI in the assay on A498 renal was determined as 41.2 µM; with DLD-1 colon, 72.3 µM; with DMS 114 small cell lung, 31.1 µM; with HCC-2998 colon it was 27.5 µM; with IGROV1 ovarian, 87.8 µM; in the assay on KM12 colon, 36.2 µM. Moreover, the TGI in the assay on KM20L2 colon is 9.27 µM; in the assay on M19-MEL melanoma, 29.5 µM; in the assay with OVCAR-3 ovarian it was over 100 µM; with SK-MEL-5 melanoma, 26.1 µM; with XF 498 CNS, 27.5 µM.
Consider `CCN(CC)CCOC(=O)Cc1cccc2c(=O)cc(-c3ccccc3)oc12`, for which the GI50 in the assay with A498 renal was 40.2 µM; in the assay on HCC-2998 colon, 34.1 µM; in the assay on IGROV1 ovarian, 82.9 µM; in the assay on KM12 colon it was 83.5 µM; in the assay on OVCAR-3 ovarian it was over 43.4 µM; in the assay on SK-MEL-5 melanoma it was 81.5 µM. Also, the TGI in the assay with A498 renal was 62.5 µM and > 145 µM; in the assay with DLD-1 colon, over 195 µM; in the assay on DMS 114 small cell lung, 137 µM; in the assay on HCC-2998 colon it was 62.5 µM and > 102 µM; in the assay on IGROV1 ovarian, 62.5 µM and > 216 µM; with KM12 colon, 62.5 µM and > 165 µM. The TGI with KM20L2 colon was over 214 µM; with M19-MEL melanoma, over 223 µM; in the assay on MDA-MB-231 breast it was 57.2 µM; in the assay with OVCAR-3 ovarian, 62.5 µM and > 76.3 µM; with SK-MEL-5 melanoma it was 62.5 µM and > 186 µM; in the assay on T-47D breast, 50.2 µM. The TGI with XF 498 CNS was 82.6 µM.
For `O=C(O)CCc1ccc2c(c1)CC1(Cc3ccccc3C1)C2`, the TGI with A498 renal, in the assay with HCC-2998 colon, in the assay on IGROV1 ovarian, with KM12 colon, in the assay with MDA-MB-231 breast and in the assay on OVCAR-3 ovarian was over 100 µM in each case. For the same molecule, the TGI in the assay with SK-MEL-5 melanoma and with T-47D breast was over 100 µM throughout.
On to `CC(=O)OCCCCn1cc(Cn2ccc(=O)n(Cc3cn(CCCCOC(C)=O)nn3)c2=O)nn1`, for which the TGI in the assay with A498 renal, in the assay on HCC-2998 colon, in the assay on IGROV1 ovarian, in the assay on KM12 colon, in the assay on MDA-MB-231 breast and in the assay with OVCAR-3 ovarian was over 100 µM throughout. Moreover, the TGI in the assay with SK-MEL-5 melanoma and with T-47D breast was over 100 µM throughout.
With `Cc1ccc(S(=O)(=O)n2ccc(-c3ccc4ccn(S(=O)(=O)c5ccc(C)cc5)c4c3)c2)cc1`, the TGI in the assay on A498 renal, in the assay with HCC-2998 colon, in the assay on IGROV1 ovarian, in the assay with KM12 colon, in the assay with MDA-MB-231 breast and in the assay with OVCAR-3 ovarian was over 100 µM in each case. The TGI in the assay on SK-MEL-5 melanoma and in the assay with T-47D breast was over 100 µM throughout.
Take `O=C(C(Cl)=C(N1CCCCC1)N1CCCCC1)C(Cl)Cl`: the TGI in the assay with A498 renal, in the assay on HCC-2998 colon, in the assay with IGROV1 ovarian, in the assay on KM12 colon, in the assay with MDA-MB-231 breast and in the assay with OVCAR-3 ovarian was over 100 µM each time. In addition, the TGI in the assay with SK-MEL-5 melanoma and with T-47D breast was over 100 µM each time.
Turning to `CCCc1nnc2sc(COc3cc(Cl)c(OCc4nn5c(CCC)nnc5s4)cc3Cl)nn12`, the TGI in the assay with A498 renal was 98.4 µM; in the assay on HCC-2998 colon, over 100 µM; in the assay on IGROV1 ovarian, over 100 µM; with KM12 colon, over 100 µM; in the assay with MDA-MB-231 breast it was over 100 µM; with OVCAR-3 ovarian it was 78.5 µM. For the same molecule, the TGI in the assay on SK-MEL-5 melanoma is 32.1 µM; with T-47D breast it was 63.5 µM.
